Measurements: patent publication US8802639B2, “RNA interference modulators of hedgehog signaling and uses thereof” (Curis, Inc., priority 2004, dated 2014)
{P} = phosphate

What was measured:
[1] = test system: Sp-C expression in embryonic mouse lungs; assay: Sp-C (surfactant type C) expression in embryonic mouse lung explants (Q-RT-PCR); format: cell-based; settings: embryonic lung cultures (FIG. 10, FIG. 11)
Procedure: Surfactant production is a measure of lung maturity, and the inability to produce surfactant is the primary cause of adult and infant respiratory distress syndrome. The increase in surfactant type C production was assessed by measuring expression of Sp-C, which encodes a protein critical for the production of surfactant.
METHODS: E13.5 old embryonic mouse lungs were dissected. Explants were grown submerged in lung explant medium (DMEM based, additives optimized for the culture of mouse lungs) for 50 hrs. They were then processed for Q-RT-PCR. Briefly, total ribonucleic acid (RNA) is isolated from the tissue and subjected to reverse transcription to generate DNA. This DNA is amplified in a polymerase chain reaction using gene-specific primers as well as primers for the ubiquitously expressed housekeeping gene GAPDH. The two primer sets are labeled with different fluorophores, allowing for quantification of both signals in the same reaction tube in a real-time PCR machine (TaqMan). When calculating the expression level of Sp-C, the specific signal is normalized to the GAPDH signal, which serves as a measure of the total DNA used in the reaction.
Steroids are known to increase lung maturation and surfactant production in animals, including humans.

human Shh = assay: siRNA inhibition of Shh expression in transfected HEK-293 cells (immunostaining); format: cell-based; settings: for inhibition of Shh expression: 0.4 μg phShh plasmid + 20, 100 or 500 pmole siRNA, about 68 hours, anti-Shh staining (FIG. 2)
Procedure: To test the effectiveness of the three siRNA antagonists, a confluent plate of HEK-293 cells were splited 1:3 and plated onto a 24-well tissue culture plate. The final density of cells was about 14,000 cells/well. Lipofectamine infection was carried out according to manufacturer's instruction. Specifically, 0.4 μg phShh^FL (a human Shh-encoding plasmid “pcDNA3.1-hShh”) and either 0, 20, 100, or 500 pmole of each annealed Shh siRNA antagonist were mixed in 25 μL of serum-free DMEM (no Pen./Strep.) with 4 μL of “Plus Reagent” for 15 minutes. At the same time, 1 μL of Lipofectamine was mixed in 25 μL of serum-free DMEM (no Pen./Strep.) with 4 μL of “Plus Reagent” for 15 minutes. At the end of the incubation, the two mixtures were combined to form complexes for 15 minutes. For each well of HEK-293 cells, the medium was changed to 200 μL of serum-free DMEM (no Pen./Strp.), and the formed complexes were then added to the respective test wells. After 3 hours of incubation at 37° C. in a 5% CO2 tissue culture incubator, 250 μL of DMEM (no Pen./Strep.) with 20% FBS were added to each well. The plate of cells were then returned to the incubator. After about 68 hours of incubation, cells in each well were fixed in 4% PFA/PAS, and stained with 1:200 dilution of rabbit anti-Shh antibody and Cy3-labeled anti-rabbit secondary antibody. […] Therefore, #1 siRNA was used for future experiments.
(§1) Next, the specificity of the inhibitory effects #1 Shh siRNA antagonist was tested against two other related Hh proteins, Ihh and Dhh. Specifically, the same HEK-293 cells were splited and seeded to a final density of about 14,000 cells/well in a 24-well tissue culture plate. The same Lipofectamine transfection as described above were carried out for each of the following combinations: • 0.4 μg of pcDNA3.1-hShh+0, 50, or 250 pmoles of siRNA #1; • 0.4 μg of pcDNA3.1-hIhh+0, 50, or 250 pmoles of siRNA #1; • 0.4 μg of pcDNA3.1-hDhh+0, 50, or 250 pmoles of siRNA #1; and, • 0.4 μg of pcDNA3.1-hShh+250 pmoles of siRNA #1 reverse strand only control.
(§2) After 2 hours of incubation with each of the complexes, the medium in each transfection well was replaced with 1 mL of fresh DMEM (no Pen./Strep.)+10% FBS, for the purpose of getting healthier cells at the end of the experiment. After 2 more days of incubation, all cells were fixed as described above, and stained with H-160 pan-Hh rabbit polyclonal antibody (Cat. No. sc-9024, Santa Cruz Biotechnology, CA) and Cy3-labeled anti-rabbit secondary antibody.

Ihh (pcDNA3.1-hIhh) = assay: siRNA specificity test, Ihh expression in transfected HEK-293 cells; format: cell-based, human; settings: pcDNA3.1-hIhh + 50 or 250 pmoles siRNA (FIG. 3)
Procedure: as §1, §2

Dhh (pcDNA3.1-hDhh) = assay: siRNA specificity test, Dhh expression in transfected HEK-293 cells; format: cell-based, human; settings: pcDNA3.1-hDhh + 50 or 250 pmoles siRNA (FIG. 3)
Procedure: as §1, §2

[2] = target: Sonic hedgehog (Shh), functional hedgehog protein secreted by human cancer cell lines (human) (UniProt Q15465); assay: cell-based or functional assay
UniProt Q15465, sequence (Q15465 24-197 limits assumed): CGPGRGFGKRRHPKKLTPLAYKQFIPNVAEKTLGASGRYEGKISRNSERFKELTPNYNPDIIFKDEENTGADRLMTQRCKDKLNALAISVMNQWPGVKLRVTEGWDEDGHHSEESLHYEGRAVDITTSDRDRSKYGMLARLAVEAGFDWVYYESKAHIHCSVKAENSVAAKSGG

C[C@]12CCC(=O)C=C1CC[C@@H]1[C@@H]2[C@@H](O)C[C@@]2(C)[C@H]1CC[C@]2(O)C(=O)CO [hydrocortisone]
Sp-C expression [1]: increase in Sp-C expression

siRNA #4: siRNA duplex against human Shh; sense 5′-P cag agu agc ccu aac cgc ucc (SEQ ID NO: 7), antisense SEQ ID NO: 8 (sense CAGAGUAGCCCUAACCGCUCC; antisense AGCGGUUAGGGCUACUCUGCC; RNA, 5' {P}, backbone not given here)
inhibition of Shh expression (human Shh): less pronounced

siRNA #5: siRNA duplex against human Shh; sense 5′-P cgg uca agu cca gcu gaa gcc (SEQ ID NO: 9), antisense SEQ ID NO: 10 (sense CGGUCAAGUCCAGCUGAAGCC; antisense CUUCAGCUGGACUUGACCGCC; RNA, 5' {P}, backbone not given here)
inhibition of Shh expression (human Shh): slightly less effective than #1

siRNA #1: siRNA duplex against human Shh; sense 5′-P cga gau guc ugc ugc uag ucc (SEQ ID NO: 5), antisense SEQ ID NO: 6 (sense CGAGAUGUCUGCUGCUAGUCC; antisense ACUAGCAGCAGACAUCUCGCC; RNA, 5' {P}, backbone not given here)
inhibition of Ihh expression (Ihh (pcDNA3.1-hIhh)): did not obviously inhibit Ihh or Dhh expression
inhibition of Shh expression (human Shh): nearly completely inhibits Shh expression
specificity for Shh as compared to Ihh and Dhh (human Shh; 50 or 250 pmoles siRNA (FIG. 3)): very specific for Shh
inhibition of expression of human Shh (human Shh; pcDNA3.1-hShh + 50 pmoles siRNA, H-160 pan-Hh staining (FIG. 3)): almost completely inhibited expression of human Shh
inhibition of Dhh expression (Dhh (pcDNA3.1-hDhh)): did not obviously inhibit Ihh or Dhh expression

Shh blocking antibody (5E1)
inhibition of luciferase expression in S12 cells (gli-Luc assay, S12/RT-4 co-cultures), IC50 [2]: 0.085 µg/mL
inhibition of luciferase expression in S12 cells (gli-Luc assay, S12/RT-4 co-cultures), IC90 [2]: 0.5 µg/mL
